Measurements reported in patent US7084169B2, “Aminoalkoxyindoles and methods of use” (Roche Palo Alto LLC, priority 2002, dated 2006).

Target: T1, recombinant human 5-HT6 receptor (Homo sapiens, UniProt P50406)
T1 construct: expressed in transfected cells; membranes used
Test: Radioligand binding studies, competition for [3H]LSD binding in HEK293 cell membranes
Conditions: [3H]LSD (5 nM), membranes of HEK293 cells stably expressing recombinant human 5-HT6 receptor, pH 7.4, 37° C., 60 min; read-out: 5-HT6 affinity values (pKi) (converted)
Method: The binding activity of compounds of this invention in vitro was determined as follows. Duplicate determinations of ligand affinity are made by competing for binding of [^3H]LSD in cell membranes derived from HEK293 cells stably expressing recombinant human 5-HT6 receptor.
All determinations were made in assay buffer containing 50 mM Tris-HCl, 10 mM MgSO4, 0.5 mM EDTA, 1 mM ascorbic acid, pH 7.4 at 37° C., in a 250 microliter reaction volume. Assay tubes containing [^3H] LSD (5 nM), competing ligand, and membrane were incubated in a shaking water bath for 60 min. at 37° C., filtered onto Packard GF-B plates (pre-soaked with 0.3% PEI) using a Packard 96 well cell harvester and washed 3 times in ice cold 50 mM Tris-HCl. Bound [^3H] LSD was determined as radioactive counts per minute using Packard TopCount.
Displacement of [3H]LSD from the binding sites was quantified by fitting concentration-binding data to a 4-parameter logistic equation:
[formula] where Hill is the Hill slope, [ligand] is the concentration of competing radioligand and IC50 is the concentration of radioligand producing half-maximal specific binding of radioligand. The specific binding window is the difference between the Bmax and the basal parameters.

T1 sequence (P50406 whole entry): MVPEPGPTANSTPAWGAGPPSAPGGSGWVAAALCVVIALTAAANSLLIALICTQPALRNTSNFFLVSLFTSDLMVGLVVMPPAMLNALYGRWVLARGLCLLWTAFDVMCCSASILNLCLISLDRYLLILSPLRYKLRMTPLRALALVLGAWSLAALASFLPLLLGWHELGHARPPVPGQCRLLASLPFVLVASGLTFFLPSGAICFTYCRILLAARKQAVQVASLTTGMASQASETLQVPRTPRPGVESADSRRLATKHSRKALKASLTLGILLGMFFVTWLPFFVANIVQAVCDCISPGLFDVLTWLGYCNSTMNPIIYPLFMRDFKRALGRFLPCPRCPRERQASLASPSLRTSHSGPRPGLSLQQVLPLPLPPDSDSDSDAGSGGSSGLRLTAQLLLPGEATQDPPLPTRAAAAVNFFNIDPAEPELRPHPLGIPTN

| Ki [nM] | Compound |
| --- | --- |
| 3.98 | O=S(=O)(c1ccccc1Cl)c1c[nH]c2c(OCCN3CCCC3)cccc12 [3-(2-Chloro-benzenesulfonyl)-7-(2-pyrrolidin-1-yl-ethoxy)-1H-indole] |
| 20 | O=S(=O)(c1ccccc1)c1c[nH]c2c(OCCN3CCCC3)cccc12 [3-Benzenesulfonyl-7-(2-pyrrolidin-1-yl-ethoxy)-1H-indole] |
| 5.01 | O=S(=O)(c1cccc(Cl)c1)c1c[nH]c2c(OCCN3CCCC3)cccc12 [3-(3-Chloro-benzenesulfonyl)-7-(2-pyrrolidin-1-yl-ethoxy)-1H-indole] |
| 20 | O=S(=O)(c1ccc(Cl)c(Cl)c1)c1c[nH]c2c(OCCN3CCCC3)cccc12 [3-(3,4-Dichloro-benzenesulfonyl)-7-(2-pyrrolidin-1-yl-ethoxy)-1H-indole] |
